Patent US9650423B2, “Long peptides of 22-45 amino acid residues that induce and/or enhance antigen specific immune responses” (priority 2000, dated 2017)
Like-named read-outs stand apart in the source and are kept apart here. Residues, ends and D or L forms follow the SMILES beside them. No end group written: not given here.

Experiments:
[1] = target: HLA-DR3 (DRB*0301); test: HLA-DR-peptide binding assay; design: species or system human
[2] = target: HLA-DR2 (DRB1*0201); test: HLA-DR-peptide binding assay; design: species or system human
[3] = target: HLA-DR4 (DRB*0401); test: HLA-DR-peptide binding assay; design: species or system human
[4] = target: T1, HLA-DR1 (DRB*0101) (Homo sapiens, UniProt P01903+P01911, A100R/D57E/F55L/F60I/F76Y/I96L/L162R/M171V/P40L/Q125E/R42F/V115G/Y59C); test: biochemical; assay type: binding
T1 construct: endogenous in cells; host or cells: LG2.1 B-lymphoblastic cell line, homozygous for HLA-DR

[5] = target: HLA-DR7 (DRB1*0701) (Homo sapiens, UniProt P01903+P01911, A100R/A102G/A103Q/D57E/D86V/E43K/F76Y/K127E/L162R/M171V/P40G/Q125H/Q99D/R33Q/R42Y/R54Q/S133A/S66F/T210M/V115G/Y107V/Y59L/Y89S); details: read-out: Binding DR7, IC50
[6] = system: healthy donor PBMC; assay type: cell-based, human; details: 10 μg/ml, day 6, two assays
[7] = system: HPV16 E7-specific T-helper clones; test: HPV16 E7-specific Th-clones: proliferation and IFNγ production; assay type: cell-based, human; details: for response of HLA-DR15 restricted Th-clone to pulsed APC: Th-clone from HLA-DR15, 4 and DQ6,7 positive PBMC raised against peptide E741-62; for recognition by HLA-DQ2 restricted Th-clone, IFNγ secretion: Th-clone from HLA-DR3, DQ2 positive PBMC stimulated with peptide E722-56
Procedure: Peptide-specific T-cell bulk cultures were generated as described previously (van der Burg et al., 1999) using either the E7 22-mer or E7 35-mer peptides. Specific proliferation was measured by incubation of 50,000 responders with an equal amount of irradiated (30Gy) APC (autologous PBMC unless indicated otherwise) and peptide or protein as indicated. E7-peptide and -protein-specific bulk T-cells were cloned by limiting dilution as described previously (van der Burg et al., 1999).
To determine specific excretion of cytokines, T-cell clones were stimulated by incubation of 50.000 T-cells with an equal amount of APC (30Gy) together with 10 μg/ml peptide, control peptide, E7 protein or control protein as indicated. After 24 hours of incubation, supernatant was harvested and replicate wells were pooled. Cytokine production was measured by Enzyme-Linked Immunosorbent Assay (ELISA) as described previously (van der Burg et al., 1999).

[8] = system: E7 49-57-specific CD8+ T cells; test: Vaccination, H-2Db E7 49-57 tetramer staining of spleen cultures; assay type: in vivo, C57BL/6 mice; details: B6 mice
Procedure: Immunization strategies. C57BL/6 mice were injected subcutaneously with either 50 μg E7^49-57 peptide or 150 μg E7^43-77 35-mer dissolved in PBS in order to achieve similar molar levels of the E7^49-57 CTL epitope in both cases. Combinations with various adjuvantia were tested. In the case of IFA and Montanide, the dissolved peptides were emulsified in 50% of these respective substances. ODN-CpG (50 μg/mouse), MPL (10 μg/mouse) and GM-CSF (4 μg/mouse) were all dissolved in PBS and mixed with the peptides before subcutaneous vaccination. The total injected volume was 200 μl/mouse.
T cell cultures. T cells were obtained from immunized mice by culturing spleen cells (5×10^6 cells/well of a 24-wells plate) in complete medium in the presence of 0.5×10^6 E7^49-57-expressing cells (tumor cell line 13.2) or, when indicated, in the presence of D1 cells.
Tetramer staining. Spleen cultures, stimulated with tumor cell line 13.2 for seven days, were transferred at an amount of 40×10^4 per well to 96-well V-bottom microtiter plates and washed twice with PBS/BSA 0.5%. Subsequently, PE-labelled E749-57-containing tetramer was added. After 30 minutes of incubation at room temperature, cells were washed twice with PBS/BSA 0.5% and incubated with FITC-labelled anti CD8b Ab for 30 minutes. Subsequently cells were washed twice in PBS/BSA 0.5%, suspended in PBS/BSA 0.5% containing Propidium Iodide (PI) (0.5) μg/ml) and transferred to tubes. Cell samples were analysed in a FACSCalibur flow cytometer (Becton Dickinson, San Jose, Calif., USA) using CellQuest software. A total of 20×10^4 events was analysed for fluorescence intensity. Debris was gated out using the PI staining and subsequently the CD8^+ fraction was gated. […] As a positive control the HPV16 E7 specific CTL clone 9.5 was used.

[9] = HPV16-E7 22-mer peptides, >70 indicates undetectable binding, read-out: Binding DR3, IC50
[10] = HPV16-E7 22-mer peptides, >70 indicates undetectable binding, read-out: Binding DR2, IC50
[11] = HPV16-E7 22-mer peptides, >70 indicates undetectable binding, read-out: Binding DR4, IC50
[12] = HPV16-E2 peptides, >70 represents undetectable binding, read-out: Binding affinity DR3, IC50
[13] = HPV16-E2 peptides, >70 represents undetectable binding, read-out: Binding affinity DR2, IC50
[14] = HPV16-E2 peptides, >70 represents undetectable binding, read-out: Binding affinity DR4, IC50
[15] = HPV16-E2 peptides, >70 represents undetectable binding, read-out: Binding affinity DR1, IC50

## DLYCYEQLNDSSEEEDEIDGPA [E7 21-42]
[1]; [9]
  IC50: > 70 µM
[2]; [10]
  IC50: 12 µM
[3]; [11]
  IC50: > 70 µM
[4]; read-out: Binding DR1, IC50
  IC50: > 70 µM
[5]
  IC50: > 70 µM

## SSTWHWTGHNVKHKSAIVTLTYDSEWQRDQ [E2 316-345]
[1]; [12]
  IC50: 30 µM
[2]; [13]
  IC50: 55 µM
[6]; donor D7
  mean percentage of wells exceeding medium control + 3 * SD: 94%
[3]; [14]
  IC50: > 70 µM
[4]; [15]
  IC50: 6 µM

## AIVTLTYDSEWQRDQFLSQVKIPKTITVSTGFMSI [E2 331-365]
[1]; [12]
  IC50: 10 µM
[2]; [13]
  IC50: 20 µM
[6]; donor D3
  mean percentage of wells exceeding medium control + 3 * SD: 100%
[6]; donor D7
  mean percentage of wells exceeding medium control + 3 * SD: 75%
[3]; [14]
  IC50: 15 µM
[4]; [15]
  IC50: 8 µM

## E7 50-62: core sequence, amino acids 50-62 of HPV16 E7 (AHYNIVTFCCKCD)
[7]
  response of HLA-DR15 restricted Th-clone to pulsed APC: core sequence recognized

## E7 22-56: long peptide, amino acids 22-56 of HPV16 E7 protein (LYCYEQLNDSSEEEDEIDGPAGQAEPDRAHYNIVT; UniProt P03129 22-56, looked up, fragment)
[7]
  recognition by HLA-DQ2 restricted Th-clone, IFNγ secretion: secreted IFNγ

## E7 protein: recombinant HPV16-E7 protein produced in E. coli [reference compound]
[7]
  recognition by HLA-DQ2 restricted Th-clone, IFNγ secretion: secreted IFNγ
  response of HLA-DR15 restricted Th-clone to pulsed APC: specifically respond

## CC[C@H](C)[C@H](NC(=O)[C@H](CCCNC(=N)N)NC(=O)CNC(=O)[C@H](CCCCN)NC(=O)[C@H](Cc1c[nH]cn1)NC(=O)[C@H](CO)NC(=O)[C@H](CO)NC(=O)[C@H](CC(N)=O)NC(=O)[C@@H](N)Cc1ccccc1)C(=O)N[C@@H](CC(N)=O)C(=O)N[C@@H](CS)C(=O)N[C@@H](CC(N)=O)C(=O)N[C@@H](CO)C(=O)N[C@@H](CC(N)=O)C(=O)N[C@H](C(=O)N[C@H](C(=O)N1CCC[C@H]1C(=O)N[C@H](C(=O)N[C@H](C(=O)N[C@@H](Cc1c[nH]cn1)C(=O)N[C@@H](CC(C)C)C(=O)N[C@@H](CCCCN)C(=O)NCC(=O)N[C@@H](CC(=O)O)C(=O)N[C@@H](C)C(=O)N[C@@H](CC(N)=O)C(=O)N[C@H](C(=O)N[C@@H](CC(C)C)C(=O)N[C@@H](CCCCN)C(=O)N[C@@H](CS)C(=O)O)[C@@H](C)O)C(C)C)[C@@H](C)CC)[C@@H](C)O)[C@@H](C)O [E2 271-300] (H-FNSSHKGRINCNSNTTPIVHLKGDANTLKC-OH; N-terminus and C-terminus assumed)
[1]; [12]
  IC50: 37 µM
[2]; [13]
  IC50: 65 µM
[6]; donor D8
  mean percentage of wells exceeding medium control + 3 * SD: 88%
[3]; [14]
  IC50: > 70 µM

## RAHYNIVTF (minimal 9 amino acid long CTL epitope) [E7 49-57, ID; NO, reference compound]
[8]; prime-boost, IFA
  E7 49-57-specific CD8+ T cell response: comparable to that after one vaccination
[8]; vaccinated once, IFA, responders
  CD8+ T cells stained with tetramers: ~5%
[8]; vaccinated once, IFA, spleens day 10
  mice responding to the vaccine (tetramer staining): 3 out of 9
[8]; vaccinated once, MPL
  number of responders: 4/9
[8]; vaccinated once, Montanide adjuvant
  E7 49-57-specific CTL response: no responses were observed
[8]; vaccinated once, ODN-CpG
  number of responders: 4/12
[8]; vaccinated once, combined with anti-CD40 antibody or GM-CSF
  E7 49-57-specific CTL response: no or minimal CTL responses

## SSEEEDEIDGPAGQAEPDRAHY [E7 31-52]
[1]; [9]
  IC50: > 70 µM
[2]; [10]
  IC50: > 70 µM
[3]; [11]
  IC50: > 70 µM
[4]; read-out: Binding DR1, IC50
  IC50: > 70 µM

## E7 30-50: peptide, amino acids 30-50 of HPV16 E7 (DSSEEEDEIDGPAGQAEPDRA; UniProt P03129 30-50, looked up, fragment)
[7]
  recognition by HLA-DQ2 restricted Th-clone, IFNγ secretion: recognized

## E7 35-55: peptide, amino acids 35-55 of HPV16 E7 (EDEIDGPAGQAEPDRAHYNIV; UniProt P03129 35-55, looked up, fragment)
[7]
  recognition by HLA-DQ2 restricted Th-clone, IFNγ secretion: recognized

## CC[C@H](C)[C@H](NC(=O)[C@H](CC(=O)O)NC(=O)[C@@H](NC(=O)[C@H](Cc1c[nH]cn1)NC(=O)[C@@H](NC(=O)[C@H](CO)NC(=O)[C@H](CCC(N)=O)NC(=O)[C@@H](NC(=O)[C@H](CS)NC(=O)[C@H](CC(C)C)NC(=O)[C@H](CCCNC(=N)N)NC(=O)[C@H](CC(C)C)NC(=O)[C@@H](NC(=O)[C@H](CO)NC(=O)[C@H](CC(=O)O)NC(=O)[C@@H](N)CS)[C@@H](C)O)C(C)C)[C@@H](C)O)C(C)C)C(=O)N[C@@H](CCCNC(=N)N)C(=O)N[C@H](C(=O)N[C@@H](CC(C)C)C(=O)N[C@@H](CCC(=O)O)C(=O)N[C@@H](CC(=O)O)C(=O)N[C@@H](CC(C)C)C(=O)O)[C@@H](C)O [E7 61-82] (H-CDSTLRLCVQSTHVDIRTLEDL-OH; N-terminus and C-terminus assumed)
[1]; [9]
  IC50: 65 µM
[2]; [10]
  IC50: 15 µM
[3]; [11]
  IC50: > 70 µM
[4]; read-out: Binding DR1, IC50
  IC50: > 70 µM
[5]
  IC50: > 70 µM

## CSCC[C@H](NC(=O)[C@@H](N)Cc1ccc(O)cc1)C(=O)N[C@@H](CC(C)C)C(=O)N[C@@H](CC(=O)O)C(=O)N[C@@H](CC(C)C)C(=O)N[C@@H](CCC(N)=O)C(=O)N1CCC[C@H]1C(=O)N[C@@H](CCC(=O)O)C(=O)N[C@H](C(=O)N[C@H](C(=O)N[C@@H](CC(=O)O)C(=O)N[C@@H](CC(C)C)C(=O)N[C@@H](Cc1ccc(O)cc1)C(=O)N[C@@H](CS)C(=O)N[C@@H](Cc1ccc(O)cc1)C(=O)N[C@@H](CCC(=O)O)C(=O)N[C@@H](CCC(N)=O)C(=O)N[C@@H](CC(C)C)C(=O)N[C@@H](CC(N)=O)C(=O)N[C@@H](CC(=O)O)C(=O)N[C@@H](CO)C(=O)N[C@@H](CO)C(=O)O)[C@@H](C)O)[C@@H](C)O [E7 11-32]
[1]; [9]
  IC50: 50 µM
[2]; [10]
  IC50: > 70 µM
[3]; [11]
  IC50: > 70 µM
[4]; read-out: Binding DR1, IC50
  IC50: > 70 µM
[5]
  IC50: > 70 µM

## E7 35-50: core sequence, amino acids 35-50 of HPV16 E7 (EDEIDGPAGQAEPDRA)
[7]
  recognition by HLA-DQ2 restricted Th-clone, IFNγ secretion: recognized the core sequence
